IC50 data for eight compounds are collected here from patent publication US9102675B2, “3-Cyanoaryl-1H-pyrrolo[2,3-B] pyridine derivatives” (MERCK PATENT GMBH, priority 2011, dated 2015).

The IC50 is the point on the concentration scale where inhibition reaches its midpoint.

One test deals with TBK1 + IKKε. The test is described as follows: TBK1 + IKKε cell assay: dose response inhibition of phospho-IRF3 @ Ser 386 in MDA-MB-468 cells after poly(I:C) stimulation. Conditions: Homo sapiens, MDA-MB-468, MDA-MB-468 cells, reference inhibitor, read-out: IC50 of reference inhibitor in phospho-IRF3 cell assay. In kind it is cell-based. The text has this:
Dose response inhibition of phospho-IRF3 @ Ser 386 cell/MDAMB468/INH/PHOS/IMAG/pIRF3
Although TBK1 and IKKε are mainly known as key substances in the innate immune response, recent findings have indicated a role for TBK1 and IKKε in Ras-induced oncogenic transformation. TBK1 was identified as RaIB effector in the Ras-like (RaI)-guanine nucleotide exchange factor (GEF) pathway that is required for Ras-induced transformation. TBK1 directly activates IRF3 which, on phosphorylation, homodimerises and translocates to the nucleus, where it activates processes associated with inflammation, immune regulation, cell survival and proliferation.
This assay has been developed in order to assess the efficacy/potency of TBK1/IKKε inhibitor compounds based on the immunocytochemical detection of nucleus-localised phospho-IRF3, a target directly downstream of TBK1. Treatment with polyinosine-polycytidylic acid (poly(I:C), a synthetic analogue of double-stranded RNA (dsRNA), a molecular pattern associated with viral infection and recognised by Toll-like receptor 3 (TLR3) is used to induce TBK1/IKKε activity and IRF3 phosphorylation at Ser386.
Day 1: MDA-MB-468 cells are detached using HyQ-Tase, counted and sown into a 384-well plate with TC surface and clear bottom in a density of 10,000 cells per well in a total volume of 35 μl of complete medium. Alternatively, the cells are sown directly from frozen glass vials.
Day 2: The cells are pre-treated with inhibitor compounds for 1 h prior to poly(I:C) stimulation. After incubation for 2 h with poly(I:C), the cells are fixed in (para)formaldehyde (PFA) and permeabilised using methanol (MeOH). The cells are then blocked and incubated with an anti-pIRF3 antibody at 4° C. overnight.
Day 3: The primary antibody is washed off, an AlexaFluor488-conjugated secondary antibody is added, the cells are contrast-stained with propidium iodide, followed by image acquisition on an IMX ultra-high content reader.
Plating medium=culture medium: • RPMI 1640, Invitrogen #31870 • 10% of FCS, Invitrogen #10270-106 • 2 mM Glutamax, Invitrogen #35050-038 • 1 mM sodium pyruvate, Invitrogen #11360 • 1% of Pen/Strep • 37° C., 5% of CO2
Plates: 384-well bottom cell culture plates with black/clear bottom, Falcon #35 3962 or Greiner #781090
Subcultivation: HyQ-Tase, Thermo Scientific (HyClone) # SV30030.01
Poly(I:C) (LMW), Invitrogen # tlrl-picw (prepare 20 mg/ml stock solution in sterile PBS, denature 30 min 55° C. in a water bath, slowly cool to RT, store at −20° C. in aliquots)
a 10-point dose-response curve with MSC2119074A-4=BX-795 is included in each experiment
Formaldehyde (methanol-free, 16%, ultrapure EM grade), Polysciences #18814 (storage RT), final conc.: 4%
Goat serum, PAA # B15-035 (storage 4° C., long term −20° C.), final conc.: 10%
BSA (IgG- and protease-free, 30%), US-Biological # A1317 (storage 4° C., long term −20° C.), final conc.: 2%
Tween 20 detergent, Calbiochem #655204 (storage RT), (prepare 10% stock solution in water; final conc.: 0.1%)
Anti-pIRF-3 rabbit mAb, Epitomics #2526-B (storage −20° C.), final conc.: 1:2000 in PBS/2% of BSA
Alexa Fluor goat-anti-rabbit-488, Invitrogen # A11034 or # A11008 (storage 4° C., dark), final conc.: 1:2000 in PBS/2% of BSA/0.1% of Tween
Propidium iodide (PI), Fluka #81845, 1 mg/ml in H2O (storage 4° C., dark), final conc.: 0.2 μg/ml
(1) Sow 10,000 cells/well/35μof complete RPMI +10% FCS into 384-well bottom cell culture plates with black / clear bottom,
(2) Incubate for 2 h at room temperature on the bench, followed by further incubation for 22 h at 37° C., 5% of CO2 and 90% RH. […]

The target in test [1] is T1, TANK binding kinase (TBK1) (Homo sapiens, UniProt Q9UHD2).
T1 sequence (Q9UHD2 1-729): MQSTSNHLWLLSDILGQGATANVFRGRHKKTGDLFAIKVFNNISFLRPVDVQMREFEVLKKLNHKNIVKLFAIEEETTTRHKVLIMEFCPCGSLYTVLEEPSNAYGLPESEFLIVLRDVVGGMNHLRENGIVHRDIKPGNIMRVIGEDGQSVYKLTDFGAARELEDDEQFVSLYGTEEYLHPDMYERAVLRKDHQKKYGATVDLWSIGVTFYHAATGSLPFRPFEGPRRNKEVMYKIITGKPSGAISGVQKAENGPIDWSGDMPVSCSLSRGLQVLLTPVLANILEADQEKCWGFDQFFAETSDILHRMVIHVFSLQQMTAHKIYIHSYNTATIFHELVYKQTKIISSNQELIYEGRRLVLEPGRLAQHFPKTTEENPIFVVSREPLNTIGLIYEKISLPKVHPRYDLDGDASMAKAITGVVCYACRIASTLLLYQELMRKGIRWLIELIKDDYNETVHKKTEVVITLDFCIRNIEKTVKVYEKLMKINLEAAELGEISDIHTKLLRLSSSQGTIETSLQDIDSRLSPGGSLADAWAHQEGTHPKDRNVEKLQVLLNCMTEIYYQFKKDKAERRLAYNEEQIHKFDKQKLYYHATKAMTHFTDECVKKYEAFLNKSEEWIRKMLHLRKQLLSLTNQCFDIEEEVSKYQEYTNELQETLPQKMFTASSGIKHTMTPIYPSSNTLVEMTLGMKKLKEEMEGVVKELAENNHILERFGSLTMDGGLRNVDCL
Nature of the test: TBK1 enzyme assay (384-well flashplate kinase assay). In kind it is biochemical. The following applies: 10 μM ATP, 0.6 nM TBK1. The method, then:
Test for the Inhibition of TBK1
(§1) The kinase assay is performed as 384-well flashplate assay (for example for Topcount measurement).
0.6 nM TANK binding kinase (TBK1), 800 nM biotinylated MELK-derived peptide (biotin-Ah-Ah-[…]) and 10 μM ATP (spiked with 0.25 μCi of ^33P-ATP/well) are incubated at 30° C. for 120 min in a total volume of 50 μl (10 mM MOPS, 10 mM Mg acetate, 0.1 mM EGTA, 1 mM DTT, 0.02% of Brij35, 0.1% of BSA, pH 7.5) with or without test compound. The reaction is stopped with 25 μl of 200 mM EDTA. After 30 min at room temperature, the liquid is removed, and each well is washed three times with 100 μl of 0.9% sodium chloride solution. Non-specific reaction is measured in the presence of 100 nM staurosporine. The radioactivity is measured in a Topcount (PerkinElmer). The results (for example IC50 values) are calculated using program tools provided by the IT Department (for example Assay-Explorer, Symyx). Cell Test

For a further test, the target named is T2, IKKε (Homo sapiens, UniProt Q14164).
T2 sequence (Q14164 1-716): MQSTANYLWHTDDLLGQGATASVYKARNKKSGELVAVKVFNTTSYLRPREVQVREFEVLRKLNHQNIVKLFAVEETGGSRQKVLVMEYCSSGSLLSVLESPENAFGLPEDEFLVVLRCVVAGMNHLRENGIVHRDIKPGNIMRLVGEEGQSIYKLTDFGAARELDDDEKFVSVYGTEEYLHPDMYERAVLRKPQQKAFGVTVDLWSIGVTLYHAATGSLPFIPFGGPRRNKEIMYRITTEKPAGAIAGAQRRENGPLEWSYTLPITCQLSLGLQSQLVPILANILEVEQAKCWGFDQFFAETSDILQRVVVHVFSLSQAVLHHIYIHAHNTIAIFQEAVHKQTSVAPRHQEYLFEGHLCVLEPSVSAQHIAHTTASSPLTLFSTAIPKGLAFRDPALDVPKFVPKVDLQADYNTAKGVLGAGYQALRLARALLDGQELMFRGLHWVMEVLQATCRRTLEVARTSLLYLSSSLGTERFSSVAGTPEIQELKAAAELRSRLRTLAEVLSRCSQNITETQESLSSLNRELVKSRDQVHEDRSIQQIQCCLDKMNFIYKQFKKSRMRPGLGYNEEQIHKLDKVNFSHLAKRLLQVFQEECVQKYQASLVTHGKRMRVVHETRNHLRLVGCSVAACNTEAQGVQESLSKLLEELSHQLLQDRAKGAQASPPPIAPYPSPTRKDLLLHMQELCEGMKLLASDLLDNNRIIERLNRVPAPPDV
Nature of the test: IKKε kinase assay (384-well flashplate assay). In kind it is biochemical. The following applies: 10 μM ATP, 1 nM IKKε; read-out: IKKε enzyme assay IC50. The method, then:
Test for the Inhibition of IKKε
IKKε—Kinase Assay (IKKepsilon)
as §1
1 nM IKKε, 800 nM biotinylated IκKα(19-42) peptide (Biotin-C6-C6-[…]) and 10 μM ATP (spiked with 0.3 μCi of ^33P-ATP/well) are incubated at 30° C. for 2 hours in a total volume of 50 μl (10 mM MOPS, 10 mM Mg acetate, 0.1 mM EGTA, 1 mM dithiothreitol, 0.02% of Brij35, 0.1% of BSA, 0.1% of BioStab, pH 7.5) with or without test compound. The reaction is stopped using 25 μl of 200 mM EDTA. After 30 min at room temperature, the liquid is removed, and each well is washed three times with 100 μl of 0.9% sodium chloride solution. Non-specific reaction is determined in the presence of 3 μM MSC2119074 (BX-795). The radioactivity is measured using a Topcount (Perkin Elmer). The results (for example IC50 values) are calculated using program tools provided by the IT Department (for example AssayExplorer, Symyx).

Some results are limits rather than exact numbers.

For `O=C(NCCCNc1nc(Nc2cccc(NC(=O)N3CCCC3)c2)ncc1I)c1cccs1` [BX-795, reference compound], in the test on TBK1 + IKKε, the IC50 was 0.2 to 0.8 µM.

Take `COc1ccnc2[nH]cc(-c3ccc(OC4CCOCC4)c(C#N)c3)c12` [Compound A2, 5-(4-methoxy-1H-pyrrolo[2,3-b]pyridin-3-yl)-2-tetrahydropyran-4-yloxybenzonitrile]: the IC50 (in test [1]; on IKKε) was 0.3 to 3 µM each time.

Regarding `COc1ccc2c(-c3ccc(OC4CCOCC4)c(C#N)c3)c[nH]c2n1` [Compound A3, 5-(6-methoxy-1H-pyrrolo[2,3-b]pyridin-3-yl)-2-tetrahydropyran-4-yloxybenzonitrile], the IC50 (in test [1]; on IKKε) was 3 to 50 µM throughout.

With `N#Cc1cc(-c2c[nH]c3ncc(Br)cc23)ccc1OC1CCOCC1` [Compound A5, 5-(5-bromo-1H-pyrrolo[2,3-b]pyridin-3-yl)-2-tetrahydropyran-4-yl-oxy-benzonitrile], the IC50 (in test [1]; on IKKε) was 3 to 50 µM throughout.

Regarding `N#Cc1ccc(-c2cnc3[nH]cc(-c4ccc(OC5CCOCC5)c(C#N)c4)c3c2)cc1` [Compound A6, 5-[5-(4-cyanophenyl)-1H-pyrrolo[2,3-b]pyridin-3-yl]-2-tetrahydropyran-4-yloxybenzonitrile], the IC50 in test [1] is less than 0.3 µM; at IKKε it was 0.3 to 3 µM.

`Cc1[nH]c2ncc(-c3cnn(C)c3)cc2c1-c1ccc(OC2CCOCC2)c(C#N)c1` [Compound A11, 5-[2-methyl-5-(1-methylpyrazol-4-yl)-1H-pyrrolo[2,3-b]pyridin-3-yl]-2-tetrahydropyran-4-yloxybenzonitrile]: the figures for the IC50 (in test [1]; at IKKε) were less than 0.3 µM and 0.3 to 3 µM, respectively.

Take `N#Cc1cc(-c2c[nH]c3ncc(Br)cc23)ccc1OCC1CC1` [Compound A14, 5-(5-bromo-1H-pyrrolo[2,3-b]pyridin-3-yl)-2-(cyclopropylmethoxy)benzonitrile]: the IC50 (in test [1]; at IKKε) was 3 to 50 µM throughout.

Consider `N#Cc1cc(-c2c[nH]c3ncc(-c4cnn(C5CCN(S(=O)(=O)c6ccccc6)CC5)c4)cc23)cnc1OC1CCOCC1` [Compound A19, 5-[5-[1-[1-(benzenesulfonyl)-4-piperidyl]pyrazol-4-yl]-1H-pyrrolo[2,3-b]pyridin-3-yl]-2-tetrahydropyran-4-yloxypyridine-3-carbonitrile], for which the IC50 (in test [1]; on IKKε) was 0.3 to 3 µM throughout.
